`CCCCCC(CCCC)c1ccccc1` (stereo not drawn) gave a logP of 6.9.
Then `CCCCCCCCCCC(CCC)c1ccccc1` (stereo not drawn), with 9.25; and `CCCCCCCCC(C)c1ccccc1` (stereo not drawn), with 7.06; and `CCCCCCCCCCCCCc1ccccc1`, with 9.36.
Then `CCCCCCCCCC(CCCC)c1ccccc1` (stereo not drawn), with 9.16; and `CCCCCCCC(CC)c1ccccc1` (stereo not drawn), with 7; and `CCCCCCCCCCCCC(C)c1ccccc1` (stereo not drawn), with 9.29.
Under `CCCCCCCCCCCC(C)c1ccccc1` (stereo not drawn) stands 8.77; under `CCCCCCCCCC(CC)c1ccccc1` (stereo not drawn), 8.1.
`CCCCCCCCC(CCCC)c1ccccc1` (stereo not drawn): the logP came out at 8.56.
Under `CCCCCCCCCCCCCCc1ccccc1` stands 9.95; under `CCCCCCCCCCC(CC)c1ccccc1` (stereo not drawn), 8.65.
Then `CCCCCCC(CCCC)c1ccccc1` (stereo not drawn), with 7.45; and `CCCCCCCCCCC(C)c1ccccc1` (stereo not drawn), with 8.19.
Turning to `CCCCCCCC(CCCCC)c1ccccc1` (stereo not drawn), the logP turned out to be 8.56.
With `CCCCCCCCC(CCCCC)c1ccccc1` (stereo not drawn), the logP was determined as 9.16.
Then `CCCCCCCCCC(C)c1ccccc1` (stereo not drawn), with 7.63; and `CCCCCCCCCCCc1ccccc1`, with 8.14; and `CCCCCCCCCCCC(CC)c1ccccc1` (stereo not drawn), with 9.29.
Then `CCCCCCCCCCCCc1ccccc1`, with 8.65; and `CCCCCCCCC(CC)c1ccccc1` (stereo not drawn), with 7.53; and `CCCCCCCC(CCCC)c1ccccc1` (stereo not drawn), with 8.01.
`CCCCCCC(CCC)c1ccccc1` (stereo not drawn) gave a logP of 7.
Under `CCCCCCC(CCCCC)c1ccccc1` (stereo not drawn) stands 8.01.
Under `CCCCCCCCCC(CCC)c1ccccc1` (stereo not drawn) stands 8.62.
Consider `CCCCCCCC(CCC)c1ccccc1` (stereo not drawn), for which the log partition coefficient (logP) worked out at 7.59.
In turn, `CCCCCCCCC(CCC)c1ccccc1` (stereo not drawn) came in with a lipophilicity (logP) of 8.07.
Under `CCCCCC(CCCCC)c1ccccc1` stands 7.45.
